Reference: patent US6677310B1, “Ring-expanded nucleosides and nucleotides” (Nabi, priority 1999, dated 2004)

How the values were obtained:
Type in all cases: cell-based, human
HCT-15 = assay: SRB anti-cancer assay, Colon Cancer; conditions: HCT-15 (Colon Cancer), 48 h
SF-295 = assay: SRB anti-cancer assay, CNS Cancer; conditions: SF-295 (CNS Cancer), 48 h
OVCAR-8 = assay: SRB anti-cancer assay, Ovarian Cancer; conditions: OVCAR-8 (Ovarian Cancer), 48 h
UACC-62 = assay: SRB anti-cancer assay, Melanoma; conditions: UACC-62 (Melanoma), 48 h
NCI/ADR-RES = assay: SRB anti-cancer assay, Breast Cancer; conditions: 48 h
HCC-2998 = assay: SRB anti-cancer assay, Colon Cancer; conditions: HCC-2998 (Colon Cancer), 48 h
MDA-N = assay: SRB anti-cancer assay, Breast Cancer; conditions: 48 h
786-0 = assay: SRB anti-cancer assay, Renal Cancer; conditions: 786-0 (Renal Cancer), 48 h
RPMI-8226 = assay: SRB anti-cancer assay, Leukemia; conditions: RPMI-8226 (Leukemia), 48 h
SN12C = assay: SRB anti-cancer assay, Renal Cancer; conditions: 48 h
SR = assay: SRB anti-cancer assay, Leukemia; conditions: 48 h
HCT-116 = assay: SRB anti-cancer assay, Colon Cancer; conditions: HCT-116 (Colon Cancer), 48 h
COLO 205 = assay: SRB anti-cancer assay, Colon Cancer; conditions: COLO 205 (Colon Cancer), 48 h
T-47D = assay: SRB anti-cancer assay, Breast Cancer; conditions: T-47D (Breast Cancer), 48 h
NCI-H460 = NCI-H460 (Non-Small Cell Lung Cancer), 48 h
OVCAR-3 = assay: SRB anti-cancer assay, Ovarian Cancer; conditions: OVCAR-3 (Ovarian Cancer), 48 h
MDA-MB-435 = assay: SRB anti-cancer assay, Breast Cancer; conditions: MDA-MB-435 (Breast Cancer), 48 h
SW-620 = assay: SRB anti-cancer assay, Colon Cancer; conditions: SW-620 (Colon Cancer), 48 h
KM12 = assay: SRB anti-cancer assay, Colon Cancer; conditions: 48 h
CCRF-CEM = assay: SRB anti-cancer assay, Leukemia; conditions: 48 h
MDA-MB- 231/ATCC = assay: SRB anti-cancer assay, Breast Cancer; conditions: MDA-MB- 231/ATCC (Breast Cancer), 48 h
SF-268 = assay: SRB anti-cancer assay, CNS Cancer; conditions: SF-268 (CNS Cancer), 48 h
UO-31 = assay: SRB anti-cancer assay, Renal Cancer; conditions: UO-31 (Renal Cancer), 48 h
HOP-62 = HOP-62 (Non-Small Cell Lung Cancer), 48 h
CAKI-1 = assay: SRB anti-cancer assay, Renal Cancer; conditions: CAKI-1 (Renal Cancer), 48 h
NCI-H23 = NCI-H23 (Non-Small Cell Lung Cancer), 48 h
MALME-3M = assay: SRB anti-cancer assay, Melanoma; conditions: MALME-3M (Melanoma), 48 h
M14 = assay: SRB anti-cancer assay, Melanoma; conditions: 48 h
SK-MEL-28 = assay: SRB anti-cancer assay, Melanoma; conditions: SK-MEL-28 (Melanoma), 48 h
[1] = read-out: LC50 (the source's name)

Q: Which results are given for `N=c1nc(N)c2ncn([C@@H]3O[C@H](CO)[C@@H](O)[C@H]3O)c2c(N)n1` [Compound 14-2, 4,8-Diamino-6H-6-imino-1-β-D-ribofuranosylimidazo[4,5-e][1,3]diazepine]?
A: GI50 (HCT-15): 11.8 µM; TGI (HCT-15): 27.4 µM; CC50 (HCT-15; [1]): 63.5 µM; GI50 (SF-295): 24.7 µM; TGI (SF-295): 63.7 µM; CC50 (SF-295; [1]): > 100 µM; GI50 (OVCAR-8): 13.2 µM; LC50 (50% lethal concentration) (OVCAR-8): 75.3 µM; TGI (OVCAR-8): 31.5 µM; GI50 (UACC-62): 2.88 µM; TGI (UACC-62): 16.2 µM; CC50 (UACC-62; [1]): 56.3 µM; GI50 (NCI/ADR-RES): 23.4 µM; TGI (NCI/ADR-RES): 67.6 µM; CC50 (NCI/ADR-RES; [1]): > 100 µM; GI50 (HCC-2998): 16.4 µM; TGI (HCC-2998): 30.8 µM; CC50 (HCC-2998; [1]): 58 µM; GI50 (MDA-N): 12.5 µM; TGI (MDA-N): 26.1 µM; CC50 (MDA-N; [1]): 54.5 µM; GI50 (786-0): 15.7 µM; TGI (786-0): 47 µM; GI50 (RPMI-8226): 32.8 µM; TGI (RPMI-8226): >100 µM; CC50 (RPMI-8226; [1]): > 100 µM; GI50 (SN12C): 14.5 µM; TGI (SN12C): 29.8 µM; CC50 (SN12C; [1]): 61.2 µM; GI50 (SR): > 100 µM; LC50 (concentration killing 50% of cells) (SR): > 100 µM; TGI (SR): >100 µM; GI50 (HCT-116): 13.3 µM; TGI (HCT-116): 26.8 µM; CC50 (HCT-116; [1]): 54.2 µM; GI50 (COLO 205): 21 µM; LC50 (COLO 205): 63.4 µM; TGI (COLO 205): 36.5 µM; GI50 (T-47D): 13.3 µM; TGI (T-47D): 39.6 µM; CC50 (T-47D; [1]): > 100 µM; GI50 (NCI-H460): 15.4 µM; TGI (NCI-H460): 31.4 µM; CC50 (NCI-H460; [1]): 64.1 µM; GI50 (OVCAR-3): 3.53 µM; TGI (OVCAR-3): 13.2 µM; CC50 (OVCAR-3; [1]): 42.3 µM; GI50 (MDA-MB-435): 12.8 µM; TGI (MDA-MB-435): 29.1 µM; CC50 (MDA-MB-435; [1]): 65.9 µM; GI50 (SW-620): 17.2 µM; TGI (SW-620): >100 µM; CC50 (SW-620; [1]): > 100 µM; GI50 (KM12): 18.6 µM; LC50 (KM12): > 100 µM; TGI (KM12): 59.3 µM; GI50 (CCRF-CEM): 59 µM; TGI (CCRF-CEM): >100 µM; CC50 (CCRF-CEM; [1]): > 100 µM; GI50 (MDA-MB- 231/ATCC): 23.8 µM; TGI (MDA-MB- 231/ATCC): 52.8 µM; CC50 (MDA-MB- 231/ATCC; [1]): > 100 µM; GI50 (SF-268): 15.7 µM; TGI (SF-268): 34.8 µM; CC50 (SF-268; [1]): 77.2 µM; GI50 (UO-31): 13.7 µM; TGI (UO-31): 28.9 µM; CC50 (UO-31; [1]): 61.2 µM; GI50 (HOP-62): 28.5 µM; LC50 (concentration for 50% net cell kill) (HOP-62): > 100 µM; TGI (HOP-62): >100 µM; GI50 (CAKI-1): 20.3 µM; TGI (CAKI-1): 71 µM; CC50 (CAKI-1; [1]): > 100 µM; GI50 (NCI-H23): 16.8 µM; TGI (NCI-H23): 33.4 µM; CC50 (NCI-H23; [1]): 66.2 µM; GI50 (MALME-3M): 2.2 µM; LC50 (MALME-3M): 25.3 µM; TGI (MALME-3M): 6.79 µM; GI50 (M14): 11.5 µM; TGI (M14): 24.3 µM; CC50 (M14; [1]): 51.1 µM; GI50 (SK-MEL-28): 25.4 µM; LC50 (SK-MEL-28): > 100 µM; TGI (SK-MEL-28): 81.1 µM
